Reference: the supplement of paper PMC10307832

Columns and labels:
Assay in all cases: relative viability (nuclei count vs DMSO), 5 days (fraction); higher = more cells survive
[1] = test system: A-427
How it was run: (§1)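 Nuclei were stained with Hoechst during a one-step fixation (final 0.05% Triton X-100, 1% formaldehyde, 1 ug/ml Hoechst) carried out 5 days after dosing, then counted on 4× images. The cells, lung cancer lines in 1536-well plates, had been dosed by pin tool the day after seeding with one drug alone or a fixed anchor-drug dose plus five library-drug doses (not always all listed) in √10 steps. Relative viability is the nuclei count in treated wells divided by that in vehicle wells, and each value is the median of duplicate plates.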

[2] = test system: NCI-H522
How it was run: as §1

[3] = test system: NCI-H2228
How it was run: as §1

[4] = test system: NCI-H322M
How it was run: as §1

[5] = test system: SK-MES-1
How it was run: as §1

[6] = test system: NCI-H2170
How it was run: as §1

[7] = test system: SW 1573
How it was run: as §1

[8] = test system: LK-2
How it was run: as §1

[9] = test system: SW 900
How it was run: as §1

[10] = test system: HOP-62
How it was run: as §1

[11] = test system: NCI-H1993
How it was run: as §1

[12] = test system: PC-3 [JPC-3]
How it was run: as §1

[13] = test system: NCI-H2009
How it was run: as §1

[14] = test system: NCI-H3122
How it was run: as §1

[15] = test system: LXF-289
How it was run: as §1

[16] = test system: EMC-BAC-2
How it was run: as §1

[17] = test system: HARA
How it was run: as §1

[18] = test system: NCI-H1792
How it was run: as §1

[19] = test system: NCI-H1944
How it was run: as §1

[20] = test system: NCI-H596
How it was run: as §1

In the case of `O=c1cc(N2CCOCC2)oc2c(-c3cccc4c3sc3ccccc34)cccc12` + Nc1nc2[nH]cc(CCc3ccc(C(=O)N[C@@H](CCC(=O)O)C(=O)O)cc3)c2c(=O)[nH]1 [Pemetrexed] (partner 0.2 µM), the relative viability ([1]; first compound 0.01 µM) is reported as 0.944, the relative viability ([1]; first compound 0.03162 µM) is reported as 1.01 and the relative viability ([1]; first compound 0.1 µM) is reported as 0.954. The relative viability ([1]; first compound 0.3162 µM) was 0.993, the relative viability ([1]; first compound 1 µM) was 0.945 and the relative viability ([2]; first compound 0.01 µM) was 1.11. It also gave a relative viability ([2]; first compound 0.03162 µM) of 1.02, a relative viability ([2]; first compound 0.1 µM) of 1.08 and a relative viability ([2]; first compound 0.3162 µM) of 1.13. For the same compound, the relative viability ([2]; first compound 1 µM) was 0.831, the relative viability ([3]; first compound 0.01 µM) was 0.342 and the relative viability ([3]; first compound 0.03162 µM) was 0.356. For the same compound, the relative viability ([3]; first compound 0.1 µM) was 0.396, the relative viability ([3]; first compound 0.3162 µM) was 0.356 and the relative viability ([3]; first compound 1 µM) was 0.355. The relative viability ([4]; first compound 0.01 µM) was 0.611, the relative viability ([4]; first compound 0.03162 µM) was 0.613 and the relative viability ([4]; first compound 0.3162 µM) was 0.617. It also gave a relative viability ([4]; first compound 1 µM) of 0.61, a relative viability ([5]; first compound 0.01 µM) of 0.868 and a relative viability ([5]; first compound 0.03162 µM) of 0.943. For the same compound, the relative viability ([5]; first compound 0.1 µM) was 0.906, the relative viability ([5]; first compound 0.3162 µM) was 0.821 and the relative viability ([5]; first compound 1 µM) was 0.91. For the same compound, the relative viability ([6]; first compound 0.01 µM) was 0.253, the relative viability ([6]; first compound 0.03162 µM) was 0.251 and the relative viability ([6]; first compound 0.1 µM) was 0.263. For the same compound, the relative viability ([6]; first compound 0.3162 µM) was 0.267, the relative viability ([6]; first compound 1 µM) was 0.255 and the relative viability ([7]; first compound 0.01 µM) was 0.847. It also gave a relative viability ([7]; first compound 0.03162 µM) of 0.937, a relative viability ([7]; first compound 0.1 µM) of 0.824 and a relative viability ([7]; first compound 0.3162 µM) of 0.857. The relative viability ([7]; first compound 1 µM) was 0.778, the relative viability ([8]; first compound 0.01 µM) was 0.278 and the relative viability ([8]; first compound 0.03162 µM) was 0.238. The relative viability ([8]; first compound 0.1 µM) was 0.296, the relative viability ([8]; first compound 0.3162 µM) was 0.238 and the relative viability ([8]; first compound 1 µM) was 0.275. For the same compound, the relative viability ([9]; first compound 0.03162 µM) was 0.452, the relative viability ([9]; first compound 0.1 µM) was 0.425 and the relative viability ([9]; first compound 0.3162 µM) was 0.51. For the same compound, the relative viability ([9]; first compound 1 µM) was 0.507, the relative viability ([10]; first compound 0.01 µM) was 0.303 and the relative viability ([10]; first compound 0.03162 µM) was 0.344. It also gave a relative viability ([10]; first compound 0.1 µM) of 0.276, a relative viability ([10]; first compound 0.3162 µM) of 0.39 and a relative viability ([10]; first compound 1 µM) of 0.384. The relative viability ([11]; first compound 0.01 µM) was 0.624, the relative viability ([11]; first compound 0.03162 µM) was 0.524 and the relative viability ([11]; first compound 0.1 µM) was 0.621. The relative viability ([11]; first compound 0.3162 µM) was 0.54, the relative viability ([11]; first compound 1 µM) was 0.553 and the relative viability ([12]; first compound 0.01 µM) was 1.09. It also gave a relative viability ([12]; first compound 0.03162 µM) of 1.14, a relative viability ([12]; first compound 0.1 µM) of 1.05 and a relative viability ([12]; first compound 0.3162 µM) of 1.1. It also gave a relative viability ([12]; first compound 1 µM) of 1.1, a relative viability ([13]; first compound 0.01 µM) of 0.929 and a relative viability ([13]; first compound 0.03162 µM) of 1.04. The relative viability ([13]; first compound 0.1 µM) was 1.01, the relative viability ([13]; first compound 0.3162 µM) was 1.01 and the relative viability ([13]; first compound 1 µM) was 0.998. The relative viability ([14]; first compound 0.01 µM) was 0.207, the relative viability ([14]; first compound 0.03162 µM) was 0.206 and the relative viability ([14]; first compound 0.1 µM) was 0.197. The relative viability ([14]; first compound 0.3162 µM) was 0.21, the relative viability ([14]; first compound 1 µM) was 0.205 and the relative viability ([15]; first compound 0.01 µM) was 0.879. The relative viability ([15]; first compound 0.03162 µM) was 0.925, the relative viability ([15]; first compound 0.1 µM) was 0.913 and the relative viability ([15]; first compound 0.3162 µM) was 0.864. For the same compound, the relative viability ([15]; first compound 1 µM) was 0.963, the relative viability ([16]; first compound 0.01 µM) was 0.459 and the relative viability ([16]; first compound 0.03162 µM) was 0.43. For the same compound, the relative viability ([16]; first compound 0.1 µM) was 0.457, the relative viability ([16]; first compound 0.3162 µM) was 0.477 and the relative viability ([16]; first compound 1 µM) was 0.456. The relative viability ([17]; first compound 0.01 µM) was 0.217, the relative viability ([17]; first compound 0.03162 µM) was 0.271 and the relative viability ([17]; first compound 0.1 µM) was 0.225. It also gave a relative viability ([17]; first compound 0.3162 µM) of 0.238, a relative viability ([17]; first compound 1 µM) of 0.262 and a relative viability ([18]; first compound 0.01 µM) of 0.835. It also gave a relative viability ([18]; first compound 0.03162 µM) of 0.901, a relative viability ([18]; first compound 0.3162 µM) of 0.836 and a relative viability ([18]; first compound 1 µM) of 0.759. The relative viability ([19]; first compound 0.01 µM) was 0.691, the relative viability ([19]; first compound 0.03162 µM) was 0.674 and the relative viability ([19]; first compound 0.1 µM) was 0.624. The relative viability ([19]; first compound 0.3162 µM) was 0.589, the relative viability ([19]; first compound 1 µM) was 0.635 and the relative viability ([20]; first compound 0.01 µM) was 0.452. It also gave a relative viability ([20]; first compound 0.03162 µM) of 0.521, a relative viability ([20]; first compound 0.1 µM) of 0.528 and a relative viability ([20]; first compound 0.3162 µM) of 0.517. The relative viability ([20]; first compound 1 µM) was 0.482.
